This passage reports IC50 and Ki results from ChEMBL document CHEMBL1909046, “DrugMatrix in vitro pharmacology data”.

For assay [1], the target named is T1, Alpha-1A adrenergic receptor (Rattus norvegicus, UniProt P43140).
T1 sequence (P43140 whole entry): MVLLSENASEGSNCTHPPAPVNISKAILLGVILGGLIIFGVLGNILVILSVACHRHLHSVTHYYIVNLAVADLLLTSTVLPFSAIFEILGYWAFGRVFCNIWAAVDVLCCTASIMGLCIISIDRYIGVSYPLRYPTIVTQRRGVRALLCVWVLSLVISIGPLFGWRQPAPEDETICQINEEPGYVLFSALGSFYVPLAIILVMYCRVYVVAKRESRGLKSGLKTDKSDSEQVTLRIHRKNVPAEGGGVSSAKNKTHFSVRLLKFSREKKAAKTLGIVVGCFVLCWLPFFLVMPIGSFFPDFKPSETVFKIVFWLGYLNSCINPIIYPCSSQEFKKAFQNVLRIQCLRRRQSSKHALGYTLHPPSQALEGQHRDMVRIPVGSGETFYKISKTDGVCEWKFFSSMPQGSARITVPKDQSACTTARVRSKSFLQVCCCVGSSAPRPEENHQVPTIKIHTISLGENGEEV
Kind of assay: DRUGMATRIX: Alpha-1A adrenergic receptor radioligand binding (ligand: prazosin). It is filed as cell membranes, Wistar, Submaxillary gland, Membrane. Particulars: Not Active = under 50% inhibition at 10 µM.

For assay [2], the target named is T2, Muscarinic acetylcholine receptor M2 (Homo sapiens, UniProt P08172). Further: in other assays of this panel Not Active means under 50% inhibition at 10 µM.
T2 sequence (P08172 whole entry): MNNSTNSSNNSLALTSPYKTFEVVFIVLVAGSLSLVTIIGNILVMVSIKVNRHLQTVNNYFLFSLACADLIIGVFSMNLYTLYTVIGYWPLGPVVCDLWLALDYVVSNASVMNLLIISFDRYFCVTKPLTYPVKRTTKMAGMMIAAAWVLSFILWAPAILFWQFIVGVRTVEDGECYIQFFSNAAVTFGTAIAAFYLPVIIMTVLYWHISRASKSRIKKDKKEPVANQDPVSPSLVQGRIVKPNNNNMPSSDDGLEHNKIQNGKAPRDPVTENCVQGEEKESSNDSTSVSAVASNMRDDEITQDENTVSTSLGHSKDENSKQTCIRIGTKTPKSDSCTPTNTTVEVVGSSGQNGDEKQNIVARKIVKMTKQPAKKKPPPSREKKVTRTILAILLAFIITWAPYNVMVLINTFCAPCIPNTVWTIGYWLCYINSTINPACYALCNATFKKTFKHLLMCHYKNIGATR
It is filed as cell membranes, CHO-K1, Membrane.

Assay [3] deals with C-C chemokine receptor type 5 (Homo sapiens, UniProt P51681). It is filed as cell membranes, Membrane. The note with it: hek293.
Sequence of C-C chemokine receptor type 5 (P51681 whole entry): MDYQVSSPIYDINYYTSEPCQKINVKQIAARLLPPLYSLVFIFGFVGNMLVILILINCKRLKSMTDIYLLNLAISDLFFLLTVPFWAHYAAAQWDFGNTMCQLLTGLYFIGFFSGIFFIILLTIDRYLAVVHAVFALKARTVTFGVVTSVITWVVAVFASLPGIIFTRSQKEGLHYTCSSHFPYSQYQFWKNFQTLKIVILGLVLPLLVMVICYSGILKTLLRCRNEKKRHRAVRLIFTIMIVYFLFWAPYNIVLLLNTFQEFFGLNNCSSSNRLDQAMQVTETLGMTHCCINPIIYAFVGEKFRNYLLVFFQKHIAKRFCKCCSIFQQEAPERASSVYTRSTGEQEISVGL
For assay [4], the target named is Platelet-activating factor receptor (Homo sapiens, UniProt P25105). In kind it is tissue-based. Further: in other assays of this panel Not Active means under 50% inhibition at 10 µM.
Sequence of Platelet-activating factor receptor (P25105 whole entry): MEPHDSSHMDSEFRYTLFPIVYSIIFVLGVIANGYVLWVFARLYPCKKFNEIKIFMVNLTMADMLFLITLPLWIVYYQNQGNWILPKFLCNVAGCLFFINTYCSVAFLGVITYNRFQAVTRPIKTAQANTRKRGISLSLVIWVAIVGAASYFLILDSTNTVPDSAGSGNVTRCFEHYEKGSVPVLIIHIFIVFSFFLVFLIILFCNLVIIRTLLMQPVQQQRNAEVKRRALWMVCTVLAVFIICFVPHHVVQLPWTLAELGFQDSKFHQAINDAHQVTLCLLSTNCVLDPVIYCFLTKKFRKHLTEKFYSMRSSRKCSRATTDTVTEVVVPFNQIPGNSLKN
Assay [5] concerns the target Matrix metalloproteinase-9 (Homo sapiens, UniProt P14780). It is filed as cell-based.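 Further: inhibition of isolated MMP-9 enzyme activity toward a synthetic peptide substrate, from the DrugMatrix protease screening panel; in other assays of this panel Not Active means under 50% inhibition at 10 µM.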
In the next assay the target is T3, Calcitonin receptor (Homo sapiens, UniProt P30988). Further: in other assays of this panel Not Active means under 50% inhibition at 10 µM.
T3 sequence (P30988 whole entry): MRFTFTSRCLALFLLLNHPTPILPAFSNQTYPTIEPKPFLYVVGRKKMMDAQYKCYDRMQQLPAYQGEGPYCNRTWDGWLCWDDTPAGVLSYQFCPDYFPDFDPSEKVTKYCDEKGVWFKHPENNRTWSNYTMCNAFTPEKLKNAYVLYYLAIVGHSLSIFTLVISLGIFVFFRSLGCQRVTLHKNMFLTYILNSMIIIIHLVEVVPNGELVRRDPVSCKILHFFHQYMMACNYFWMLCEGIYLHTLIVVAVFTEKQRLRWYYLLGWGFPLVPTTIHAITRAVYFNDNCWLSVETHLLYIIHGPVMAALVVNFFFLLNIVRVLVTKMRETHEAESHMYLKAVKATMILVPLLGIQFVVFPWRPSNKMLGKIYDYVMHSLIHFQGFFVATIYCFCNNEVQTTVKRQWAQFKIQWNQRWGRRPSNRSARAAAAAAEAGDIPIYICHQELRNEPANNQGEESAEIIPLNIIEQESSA
It is filed as cell membranes, Membrane. Particulars: t47d.

Assay [6] is described as follows: DRUGMATRIX: Calcium Channel Type L, Dihydropyridine radioligand binding (ligand: [3H] Nitrendipine). The note with it: Not Active = under 50% inhibition at 10 µM. It is filed as cell membranes, Rattus norvegicus, Wistar, Cerebral cortex, Membrane.

Sequence of Matrix metalloproteinase-9 (P14780 whole entry): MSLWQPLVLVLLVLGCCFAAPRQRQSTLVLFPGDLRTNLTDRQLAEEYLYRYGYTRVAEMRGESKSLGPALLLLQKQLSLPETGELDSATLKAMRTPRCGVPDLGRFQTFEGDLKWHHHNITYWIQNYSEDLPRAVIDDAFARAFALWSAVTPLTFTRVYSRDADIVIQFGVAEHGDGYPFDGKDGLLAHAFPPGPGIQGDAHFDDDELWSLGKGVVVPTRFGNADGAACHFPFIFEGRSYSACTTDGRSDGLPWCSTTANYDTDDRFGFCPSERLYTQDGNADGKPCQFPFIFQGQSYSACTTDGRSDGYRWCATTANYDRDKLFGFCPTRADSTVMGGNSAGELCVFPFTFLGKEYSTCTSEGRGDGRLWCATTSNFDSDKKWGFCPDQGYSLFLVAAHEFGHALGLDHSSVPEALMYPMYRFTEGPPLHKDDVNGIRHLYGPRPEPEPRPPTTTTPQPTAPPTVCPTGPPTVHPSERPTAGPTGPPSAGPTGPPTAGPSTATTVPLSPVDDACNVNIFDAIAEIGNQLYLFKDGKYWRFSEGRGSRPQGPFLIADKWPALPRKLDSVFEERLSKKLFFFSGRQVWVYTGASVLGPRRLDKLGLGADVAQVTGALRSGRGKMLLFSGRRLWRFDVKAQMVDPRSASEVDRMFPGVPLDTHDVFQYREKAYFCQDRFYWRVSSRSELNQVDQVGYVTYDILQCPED

The IC50 is the concentration at which inhibition is half-maximal. Broadly, the Ki is a measure of affinity in units of concentration, obtained from inhibition or displacement. Turning to `CN1CCN(C(c2ccccc2)c2ccccc2)CC1` [CYCLIZINE], the IC50 result in assay [1] was “Not Active”; in assay [2] (read-out: IC50), 1160 nM; in assay [3], “Not Active”; in assay [4], “Not Active”; in assay [5] it was “Not Active”; at Calcitonin receptor, “Not Active”. Also, in assay [6], the IC50 entry is “Not Active”. The Ki was 412 nM in assay [2] (read-out: Ki) and “Not Active” in assay [6].

Take `CN1C[C@@H]2C[C@H]1CN2c1cc2c(cc1F)c(=O)c(C(=O)O)cn2C1CC1` [DANOFLOXACIN]: the IC50 entry (in assay [1]; in assay [2] (cho-k1); in assay [3]; in assay [4]; in assay [5]; at Calcitonin receptor) was “Not Active” throughout. Also, the IC50 entry in assay [6] is “Not Active”. Further, the Ki result in assay [6] is on record as “Not Active”.

Turning to `COc1cccc2c1C(=O)c1c(O)c3c(c(O)c1C2=O)C[C@@](O)(C(C)=O)C[C@@H]3O[C@H]1C[C@H](N)[C@H](O)[C@H](C)O1` [DAUNORUBICIN], the IC50 result (in assay [1]; in assay [2] (cho-k1); in assay [3]; in assay [4]; in assay [5]; on Calcitonin receptor) was “Not Active” throughout. Moreover, the IC50 entry in assay [6] was “Not Active”. Further, in assay [6], the Ki result was “Not Active”.

As for `O=C(O)c1cc(-c2ccc(F)cc2F)ccc1O` [DIFLUNISAL], the IC50 result (in assay [1]; in assay [2] (cho-k1); in assay [3]; in assay [4]; in assay [5]; on Calcitonin receptor) was “Not Active” throughout. The IC50 entry in assay [6] is “Not Active”. In assay [6], the Ki entry is “Not Active”.

For `C[S+](C)[O-]` [DIMETHYL SULFOXIDE], the IC50 result (in assay [1]; in assay [2] (cho-k1); in assay [3]; in assay [4]; in assay [5]; at Calcitonin receptor) was “Not Active” throughout. In addition, the IC50 entry in assay [6] is given as “Not Active”. In addition, the Ki result in assay [6] is reported as “Not Active”.

With `CC1=NN(c2ccccc2)C(=O)C1` [EDARAVONE], the IC50 entry (in assay [1]; in assay [2] (cho-k1); in assay [3]; in assay [4]; in assay [5]; on Calcitonin receptor) was “Not Active” throughout. Also, the IC50 result in assay [6] is “Not Active”. In addition, the Ki result in assay [6] is “Not Active”.

As to `CC(C)C[C@H]1C(=O)N2CCC[C@H]2[C@]2(O)O[C@](NC(=O)[C@@H]3C=C4c5cccc6[nH]cc(c56)C[C@H]4N(C)C3)(C(C)C)C(=O)N12` [ERGOCRYPTINE], the IC50 in assay [1] (read-out: IC50) is 11 nM; in assay [2] (cho-k1) it was “Not Active”; in assay [3], “Not Active”; in assay [4], “Not Active”; in assay [5] it was “Not Active”; at Calcitonin receptor, “Not Active”. Moreover, the IC50 result in assay [6] is recorded as “Not Active”. In addition, the Ki in assay [1] (read-out: Ki) is 4.28 nM; in assay [6] it was “Not Active”.

Consider `C[C@]12CC[C@@H]3c4ccc(O)cc4CC[C@H]3[C@@H]1C[C@@H](O)[C@@H]2O` [ESTRIOL], for which the IC50 result (in assay [1]; in assay [2] (cho-k1); in assay [3]; in assay [4]; in assay [5]; on Calcitonin receptor) was “Not Active” in each case. Besides, the IC50 entry in assay [6] is given as “Not Active”. Further, the Ki entry in assay [6] is reported as “Not Active”.

As for `C#C[C@]1(O)CC[C@H]2[C@@H]3CCC4=CC(=O)CC[C@]4(C)[C@H]3CC[C@@]21C` [ETHISTERONE], the IC50 entry (in assay [1]; in assay [2] (cho-k1); in assay [3]; in assay [4]; in assay [5]; on Calcitonin receptor) was “Not Active” in each case. Moreover, the IC50 entry in assay [6] is on record as “Not Active”. The Ki result in assay [6] is on record as “Not Active”.

Turning to `CC(O)(P(=O)(O)O)P(=O)(O)O` [ETIDRONIC ACID], the IC50 entry (in assay [1]; in assay [2] (cho-k1); in assay [3]; in assay [4]; in assay [5]; at Calcitonin receptor) was “Not Active” throughout. Moreover, in assay [6], the IC50 entry is on record as “Not Active”. Also, in assay [6], the Ki entry is given as “Not Active”.

On to `CC(C)(C(=O)O)c1ccc(C(O)CCCN2CCC(C(O)(c3ccccc3)c3ccccc3)CC2)cc1` (stereo unspecified) [FEXOFENADINE], for which the IC50 entry (in assay [1]; in assay [2] (cho-k1); in assay [3]; in assay [4]; in assay [5]; on Calcitonin receptor) was “Not Active” throughout. In addition, the IC50 entry in assay [6] is listed as “Not Active”. For the same compound, in assay [6], the inhibitory constant (Ki) result is recorded as “Not Active”.

As for `CN1CCN(c2c(F)cc3c(=O)c(C(=O)O)cn(CCF)c3c2F)CC1` [FLEROXACIN], the IC50 entry (in assay [1]; in assay [2] (cho-k1); in assay [3]; in assay [4]; in assay [5]; at Calcitonin receptor) was “Not Active” each time. Further, the IC50 result in assay [6] was “Not Active”. In addition, in assay [6], the Ki entry is reported as “Not Active”.

In the case of `O=c1[nH]c(=O)n([C@H]2C[C@H](O)[C@@H](CO)O2)cc1F` [FLOXURIDINE], the IC50 entry (in assay [1]; in assay [2] (cho-k1); in assay [3]; in assay [4]; in assay [5]; on Calcitonin receptor) was “Not Active” each time. For the same compound, the IC50 entry in assay [6] is recorded as “Not Active”. The Ki result in assay [6] was “Not Active”.

Take `COC(=O)Nc1nc2cc(C(=O)c3ccc(F)cc3)ccc2[nH]1` [FLUBENDAZOLE]: the IC50 entry (in assay [1]; in assay [2] (cho-k1); in assay [3]; in assay [4]; in assay [5]; at Calcitonin receptor) was “Not Active” throughout. Moreover, in assay [6], the IC50 entry is listed as “Not Active”. The Ki entry in assay [6] is recorded as “Not Active”.

For the compound `CC(=O)OCC(=O)[C@@]1(O)CC[C@H]2[C@@H]3CCC4=CC(=O)CC[C@]4(C)[C@@]3(F)[C@@H](O)C[C@@]21C` [FLUDROCORTISONE ACETATE], the IC50 entry (in assay [1]; in assay [2] (cho-k1); in assay [3]; in assay [4]; in assay [5]; at Calcitonin receptor) was “Not Active” each time. Also, the IC50 entry in assay [6] is “Not Active”. For the same compound, in assay [6], the Ki entry is given as “Not Active”.

On to `CCOC(=O)c1ncn2c1CN(C)C(=O)c1cc(F)ccc1-2` [FLUMAZENIL], for which the IC50 result (in assay [1]; in assay [2] (cho-k1); in assay [3]; in assay [4]; in assay [5]; on Calcitonin receptor) was “Not Active” throughout. Moreover, the IC50 result in assay [6] is “Not Active”. In addition, the Ki entry in assay [6] is on record as “Not Active”.

In the case of `CC(=O)OCC(=O)[C@@]12OC(C)(C)O[C@@H]1C[C@H]1[C@@H]3C[C@H](F)C4=CC(=O)C=C[C@]4(C)[C@@]3(F)[C@@H](O)C[C@@]12C` [FLUOCINONIDE], the IC50 result (in assay [1]; in assay [2] (cho-k1); in assay [3]; in assay [4]; in assay [5]; at Calcitonin receptor) was “Not Active” each time. Besides, in assay [6], the IC50 entry is given as “Not Active”. Further, the Ki entry in assay [6] is given as “Not Active”.

Regarding `O=C(O)P(=O)(O)O` [FOSCARNET], the IC50 result (in assay [1]; in assay [2] (cho-k1); in assay [3]; in assay [4]; in assay [5]; at Calcitonin receptor) was “Not Active” in each case. Moreover, in assay [6], the IC50 result is on record as “Not Active”. The Ki entry in assay [6] was “Not Active”.
